Laboratory results as given in PubChem BioAssay AID192 (DTP/NCI, 2004).
Values joined by “and” are separate entries in the source; they are usually repeats but may differ in a detail not shown here. Equal entries are not always repeated. Toxic doses and inconclusive results are not listed.

Test system: BDF1 mice, B16 melanoma ip, median survival T/C
Assay: NCI In Vivo Anticancer Drug Screen. Data for tumor model B16 Melanoma (intraperitoneal) in B6D2F1 (BDF1) mice
Details: endpoint: median survival time, higher = longer survival
Method in brief: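 Tumor-bearing mice received test compound or vehicle. Survival or tumor size was then measured in both groups. The treated-group figure was divided by the control-group figure.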

[1] = dose: 100.0 mg/kg/injection, schedule: Q01DX009 (ip), vehicle: Klucel (hydroxypropylcellulose) (HPC)
[2] = dose: 200.0 mg/kg/injection, schedule: Q01DX009 (ip), vehicle: Klucel (hydroxypropylcellulose) (HPC)
[3] = dose: 400.0 mg/kg/injection, schedule: Q01DX009 (ip), vehicle: Klucel (hydroxypropylcellulose) (HPC)
[4] = dose: 6.25 mg/kg/injection, schedule: Q01DX009 (ip), vehicle: saline with Tween-80
[5] = dose: 12.5 mg/kg/injection, schedule: Q01DX009 (ip), vehicle: saline with Tween-80
[6] = dose: 25.0 mg/kg/injection, schedule: Q01DX009 (ip), vehicle: saline with Tween-80
[7] = dose: 0.8 mg/kg/injection, schedule: Q01DX009 (ip), vehicle: saline
[8] = dose: 1.6 mg/kg/injection, schedule: Q01DX009 (ip), vehicle: saline
[9] = dose: 100.0 mg/kg/injection, schedule: Q01DX009 (ip), vehicle: saline with Tween-80
[10] = dose: 50.0 mg/kg/injection, schedule: Q01DX009 (ip), vehicle: Klucel (hydroxypropylcellulose) (HPC)
[11] = dose: 6.25 mg/kg/injection, schedule: Q01DX009 (ip), vehicle: saline
[12] = dose: 25.0 mg/kg/injection, schedule: Q01DX009 (ip), vehicle: saline
[13] = dose: 0.75 mg/kg/injection, schedule: Q01DX009 (ip), vehicle: saline
[14] = dose: 1.5 mg/kg/injection, schedule: Q01DX009 (ip), vehicle: saline
[15] = dose: 3.0 mg/kg/injection, schedule: Q01DX009 (ip), vehicle: saline
[16] = dose: 50.0 mg/kg/injection, schedule: Q01DX009 (ip), vehicle: saline with Tween-80
[17] = dose: 100.0 mg/kg/injection, schedule: Q01DX009 (ip), vehicle: saline

CCCCCCCCC(O)CCCCC (centres undefined)
T/C [1]: 100 % of control | T/C [2]: 94 % of control | T/C [3]: 98 % of control

CCCCCCCCC(O)CCCC (centres undefined)
T/C [1]: 103 % of control | T/C [2]: 95 % of control | T/C [3]: 103 % of control

Cc1ccc(NC(=O)Nc2ccc(C)c(NC(=O)Nc3ccc(C)c(Cl)c3)c2)cc1Cl
T/C [4]: 99 % of control | T/C [5]: 90 % of control | T/C [6]: 99 % of control

Cc1c(N)nc([C@H](CC(N)=O)NC[C@H](N)C(N)=O)nc1C(=O)N[C@H](C(=O)N[C@H](C)[C@@H](O)CC(=O)N[C@H](C(=O)NC(O[C@@H]1O[C@@H](C)[C@@H](N)[C@@H](O)[C@H]1O)C(O)c1nc(-c2nc(C(=O)NCCCCN)cs2)cs1)[C@@H](C)O)[C@@H](O[C@@H]1O[C@@H](CO)[C@@H](O)[C@H](O)[C@@H]1O[C@H]1O[C@H](CO)[C@@H](O)[C@H](OC(N)=O)[C@@H]1O)c1c[nH]cn1 (some centres undefined)
T/C [7]: 152 % of control | T/C [8]: 152 % of control | T/C (dose: 3.2 mg/kg/injection, schedule: Q01DX009 (ip), vehicle: saline): 150 % of control

Cc1cccc(C)c1NC(=O)c1ccccc1C(=O)O
T/C [9]: 97 % of control | T/C (dose: 200.0 mg/kg/injection, schedule: Q01DX009 (ip), vehicle: saline with Tween-80): 92 % of control | T/C (dose: 400.0 mg/kg/injection, schedule: Q01DX009 (ip), vehicle: saline with Tween-80): 95 % of control

Cn1c(O)c(C=N)c(=O)n(C)c1=O
T/C (dose: 25.0 mg/kg/injection, schedule: Q01DX009 (ip), vehicle: other): 111 % of control | T/C (dose: 50.0 mg/kg/injection, schedule: Q01DX009 (ip), vehicle: other): 102 % of control

C[As](C)[Se]C1OC(CO)C(O)C(O)C1O (centres undefined)
T/C (dose: 12.5 mg/kg/injection, schedule: Q01DX009 (ip), vehicle: Klucel (hydroxypropylcellulose) (HPC)): 112 % of control | T/C (dose: 25.0 mg/kg/injection, schedule: Q01DX009 (ip), vehicle: Klucel (hydroxypropylcellulose) (HPC)): 106 % of control | T/C [10]: 104 % of control

C1CC[N-]CC1.C1CC[N-]CC1.C1CC[N-]CC1.C1CC[N-]CC1.N#C[S-].N#C[S-].[Ni]
T/C (dose: 5.0 mg/kg/injection, schedule: Q01DX009 (ip), vehicle: saline with Tween-80): 92 % of control | T/C (dose: 10.0 mg/kg/injection, schedule: Q01DX009 (ip), vehicle: saline with Tween-80): 104 % of control

COC(=O)c1nc(-c2ccc3c(n2)C(=O)C(N)=C(OC)C3=O)c(N)c(-c2ccc(OC)c(OC)c2O)c1C
T/C (dose: 0.1 mg/kg/injection, schedule: Q01DX009 (ip), vehicle: saline with Tween-80): 95 % of control | T/C (dose: 0.2 mg/kg/injection, schedule: Q01DX009 (ip), vehicle: saline with Tween-80): 97 % of control | T/C (dose: 0.4 mg/kg/injection, schedule: Q01DX009 (ip), vehicle: saline with Tween-80): 105 % of control | T/C (dose: 0.8 mg/kg/injection, schedule: Q01DX009 (ip), vehicle: saline with Tween-80): 104 % of control

CC(=O)CC(=O)Nc1cccc(Cl)c1C
T/C [10]: 103 % of control | T/C [1]: 96 % of control | T/C [2]: 106 % of control

CCCC[P+](c1ccccc1)(c1ccccc1)c1ccccc1
T/C [11]: 90 % of control | T/C [12]: 95 % of control

O=C1C(F)=C(N2CC2)C(=O)C(N2CCOCC2)=C1N1CC1
T/C [13]: 118 % of control | T/C [14]: 108 % of control | T/C [15]: 100 % of control

O=C1C(=O)C(Cl)=C(Cl)C(Cl)=C1Cl
T/C [13]: 106 % of control | T/C [14]: 93 % of control | T/C [15]: 93 % of control

CCCCOC(=O)/C=C(\Br)C(=O)OCCCC
T/C [4]: 99 % of control and 100 % of control | T/C [5]: 98 % of control and 104 % of control | T/C [6]: 86 % of control and 98 % of control | T/C [16]: 91 % of control | T/C [9]: 90 % of control

O=C(O)/C=C/c1ccc(/C=C/C(=O)O)cc1
T/C (dose: 100.0 mg/kg/injection, schedule: Q04DX003 (ip), vehicle: saline with Tween-80): 111 % of control | T/C (dose: 200.0 mg/kg/injection, schedule: Q04DX003 (ip), vehicle: saline with Tween-80): 102 % of control | T/C (dose: 400.0 mg/kg/injection, schedule: Q04DX003 (ip), vehicle: saline with Tween-80): 100 % of control

COc1cc2cc[n+](C)cc2cc1OC
T/C (dose: 6.25 mg/kg/injection, schedule: Q01DX009 (ip), vehicle: water): 95 % of control | T/C (dose: 12.5 mg/kg/injection, schedule: Q01DX009 (ip), vehicle: water): 95 % of control | T/C (dose: 25.0 mg/kg/injection, schedule: Q01DX009 (ip), vehicle: water): 97 % of control | T/C (dose: 50.0 mg/kg/injection, schedule: Q01DX009 (ip), vehicle: water): 92 % of control

Cc1c(N)nc(C(CC(N)=O)NCC(N)C(N)=O)nc1C(=O)NC(C(=O)NC(C)C(O)CC(=O)NC(C(=O)NC(OC1OC(C)C(N)C(O)C1O)C(O)c1nc(-c2nc(C(=O)NCCCC(N)CC(=O)NCCCNCCCCN)cs2)cs1)C(C)O)C(OC1OC(CO)C(O)C(O)C1OC1OC(CO)C(O)C(OC(N)=O)C1O)c1cnc[nH]1 (centres undefined)
T/C (dose: 0.2 mg/kg/injection, schedule: Q01DX009 (ip), vehicle: saline): 113 % of control | T/C [7]: 90 % of control | T/C [8]: 101 % of control

C=CC(=O)NCNC(=O)C=C
T/C [5]: 104 % of control | T/C (dose: 12.5 mg/kg/injection, schedule: Q01DX009 (ip), vehicle: saline): 110 % of control | T/C [6]: 99 % of control | T/C [12]: 102 % of control | T/C [16]: 103 % of control | T/C (dose: 50.0 mg/kg/injection, schedule: Q01DX009 (ip), vehicle: saline): 109 % of control | T/C [9]: 107 % of control | T/C [17]: 102 % of control

CC(=O)CC(=O)Nc1cc(Cl)ccc1C
T/C [10]: 105 % of control | T/C [1]: 92 % of control | T/C [2]: 94 % of control

C(=C\c1cnc2ccccc2n1)/c1ccc2c(c1)OCO2
T/C (dose: 75.0 mg/kg/injection, schedule: Q01DX009 (ip), vehicle: Klucel (hydroxypropylcellulose) (HPC)): 105 % of control | T/C (dose: 150.0 mg/kg/injection, schedule: Q01DX009 (ip), vehicle: Klucel (hydroxypropylcellulose) (HPC)): 94 % of control

O=C1NC(c2ccccc2Cl)Nc2ccccc21 (centres undefined)
T/C [10]: 103 % of control | T/C [1]: 98 % of control | T/C [2]: 98 % of control | T/C [3]: 108 % of control

CC(=O)Oc1cc(-c2c(C)cc(C)cc2C)c(OC(C)=O)cc1C
T/C (dose: 100.0 mg/kg/injection, schedule: Q04DX003 (ip), vehicle: Klucel (hydroxypropylcellulose) (HPC)): 93 % of control | T/C (dose: 200.0 mg/kg/injection, schedule: Q04DX003 (ip), vehicle: Klucel (hydroxypropylcellulose) (HPC)): 91 % of control | T/C (dose: 400.0 mg/kg/injection, schedule: Q04DX003 (ip), vehicle: Klucel (hydroxypropylcellulose) (HPC)): 97 % of control

Cn1c(C(Cl)Cl)nc2ccccc2c1=O
T/C [5]: 110 % of control | T/C [6]: 105 % of control | T/C [16]: 105 % of control

NC(=S)N/N=C/c1ccc(OC(=O)COc2ccc(Cl)cc2)cn1
T/C [6]: 111 % of control | T/C [16]: 116 % of control | T/C [9]: 117 % of control

CC1=NN(c2ccccc2)C(=O)C1N=Nc1ccccc1S(=O)(=O)O (centres undefined)
T/C [16]: 90 % of control

OCCN1CCN(CCCN2c3ccccc3CCc3ccccc32)CC1
T/C (dose: 3.9 mg/kg/injection, schedule: Q01DX009 (ip), vehicle: saline): 95 % of control | T/C (dose: 7.81 mg/kg/injection, schedule: Q01DX009 (ip), vehicle: saline): 93 % of control | T/C (dose: 15.62 mg/kg/injection, schedule: Q01DX009 (ip), vehicle: saline): 100 % of control | T/C (dose: 31.25 mg/kg/injection, schedule: Q01DX009 (ip), vehicle: saline): 97 % of control | T/C (dose: 62.5 mg/kg/injection, schedule: Q01DX009 (ip), vehicle: saline): 95 % of control

CCCCCCCCCCCC(=O)[O][Sn]([CH2]c1ccccc1)([CH2]c1ccccc1)[CH2]c1ccccc1
T/C (dose: 1.25 mg/kg/injection, schedule: Q04DX003 (ip), vehicle: other): 107 % of control | T/C (dose: 2.5 mg/kg/injection, schedule: Q04DX003 (ip), vehicle: other): 105 % of control | T/C (dose: 5.0 mg/kg/injection, schedule: Q04DX003 (ip), vehicle: other): 95 % of control

CCC(C)OC(N)=O (centres undefined)
T/C [17]: 123 % of control

Cc1ccc2c(ccc(/C=C\c3cc(C)c4cccnc4c3O)[n+]2C)c1
T/C (dose: 1.56 mg/kg/injection, schedule: Q01DX009 (ip), vehicle: saline): 95 % of control | T/C (dose: 3.13 mg/kg/injection, schedule: Q01DX009 (ip), vehicle: saline): 95 % of control | T/C [11]: 91 % of control

CCN(C(=O)c1ccc(C(=O)N(CC)c2ccccc2)cc1)c1ccccc1
T/C [10]: 119 % of control | T/C [1]: 114 % of control | T/C [2]: 111 % of control
